Several values for one entry are separate records, joined by “and”; a condition that tells them apart may be missing. Equal entries are not always repeated. Where two headings read alike, the source gives them in different places.
Legend:
[1] = system: lymphocytic leukemia P-388; assay: P-388 lymphocytic leukemia test in mice (NCI Protocol 1.200); type: in vivo, CDF1 female mice; conditions: for Tox.Day Surv. (survivors/animals tested): day 5
Description: Various bis(acyloxymethyl)imidazole derivatives prepared in accord with Examples I-XVIII and designated Samples A-J, were tested for anti-tumor activity in vivo using the lymphocytic leukemia P-388 test procedure in mice with Samples A and B representing controls. The test system was that employed by the National Cancer Institute (NCI) for the preliminary screening of anti-tumor agents, according to Protocol 1.200 (Cancer Chemo. Reports Part 3, Vol. 3, No. 2, page 9; 1972). In the study ascitic fluid containing 6×10^6 cells was implanted in the peritoneal cavity of CDF1 female mice. Each imidazole was given in a single injection, at four to six different dose levels (5-6 mice/dose level) daily for five (5) days beginning 24 hours after tumor innoculation. The control animals received saline. Test criteria was in accord with NCI protocol as follows: toxicity day evaluations were carried out on day 5 (number of survivors/number of animals tested); % T/C data was calculated through mean survival time [% T/C=(MST treated/MST control)x100, where MST=mean survival time]; BWD refers to the body weight difference (grams) of test animals compared to control animals; KE refers to the log of the tumor cell population at the end of treatment relative to tumor cell population before treatment.
Table I sets out the identification of the compounds corresponding to the samples used in this and further Examples. Table II sets out the results of the P-388 tests.

[2] = system: LOX (amelanotic melanoma) human tumor xenograft; assay: LOX human amelanotic melanoma xenograft, survival evaluation; type: in vivo, human tumor in female athymic (nude) mice; conditions: single dose
Description: (§1) Tumor cells were inoculated ip(intraperitonal) into female, athymic, mice, being either MX-1 (mammary) or LOX (amelanotic melanoma) human tumor xenograph models. The human xenograft tumors were formed by heterotransplantation of surgically removed human tumors into the subrenal capsule of the nude mice. […] The hydrochloride salts of the compounds, designated H, K, and L, and the free base of H, as identified on Table I were administered to the viable human xenograft tumors by a single dose subcutaneous renal cavity (MX-1) injection or interperitonal (LOX) injection to the nude mice test animal in a suspension of 0.9% aqueous sodium chloride solution with "tween-80" and distilled water. The tested compounds were tested against a known cancer tumor inhibiting compound (control) 2,3-dihydro-5-(3'-4'-dichloropheny1)-6,7-bis(n-propylcarbanoxymethylcarbonate)-1H-pyrollizine.
(§2) In both the MX-1 and LOX model, results were expressed as a percentage of the test animal evaluation (T) compared to that for the control (C) and was reported as %T/C. These values are based on all mice in the test.
In the LOX model %T/C was evaluated by survival, meaning that the mean survival time of mice of the control group surviving (C) is compared to the mean survival time of mice who survived the test with treatment (T).
(§3) The data presented comprises findings at optimal dosages of particularly effective compounds of the invention as compared to the control.

[3] = system: MX-1 (mammary) human tumor xenograft; assay: MX-1 human mammary tumor xenograft (subrenal capsule), tumor weight evaluation; type: in vivo, human tumor in female athymic (nude) mice; conditions: single dose
Description: as §1, §2
In the MX-1 model %T/C was evaluated from an estimate of tumor weight in untreated mice as compared to an estimate of tumor weight in treated mice. In such tumor weight evaluation, a low %T/C indicates effective treatment as the tumors of the treated mice are smaller than tumors of the untreated control mice.
as §3

[4] = hygroscopicity of the hydrochloride salt (observation); type: physicochemical; conditions: crystalline hydrochloride salt
Description: A solution of the 1-n-propyl-2-methylthio-4,5-bis(N-methyl carbonyloxymethyl)imidazole prepared in Example XVI (1.72 g; 5.21 mmol) in anhydrous dichloromethane (50 mL) was stirred at 0°-5° C. while anhydrous hydrogen chloride gas was bubbled into the solution for 5 minutes through a gas dispersion tube. […] The residue was dried in vacuo for 10 minutes and dissolved in anhydrous dichloromethane (40 mL). The solution was reduced in volume to 10 mL to induce crystallization. Once crystallization had begun, methylene chloride (20 mL) was added and the cold (0° C.) solution was triturated for 10 minutes.

[5] = 100 mg/kg/inj, daily for 5 days
[6] = 200 mg/kg/inj, daily for 5 days
[7] = 400 mg/kg/inj, daily for 5 days
[8] = Mus musculus, P388, 120 h, read-out: % T/C (mean survival time)
[9] = 12.5 mg/kg/inj, daily for 5 days
[10] = Mus musculus, P388, 120 h, 12.5 mg/kg/inj, daily for 5 days, read-out: % T/C (mean survival time)
[11] = Mus musculus, P388, 120 h, 25 mg/kg/inj, daily for 5 days, read-out: % T/C (mean survival time)
[12] = Mus musculus, P388, 120 h, 50 mg/kg/inj, daily for 5 days, read-out: % T/C (mean survival time)
[13] = Mus musculus, P388, 120 h, 100 mg/kg/inj, daily for 5 days, read-out: % T/C (mean survival time)
[14] = Mus musculus, P388, 120 h, 200 mg/kg/inj, daily for 5 days, read-out: % T/C (mean survival time)
[15] = optimal dosage 100 mg/kg, free base, listed as H (Free base)
[16] = optimal dosage 115 mg/kg, hydrochloride salt
[17] = optimal dosage 200 mg/kg, free base
[18] = 6.25 mg/kg/inj, daily for 5 days
[19] = Mus musculus, P388, 120 h, 400 mg/kg/inj, daily for 5 days, read-out: % T/C (mean survival time)
[20] = optimal dosage 240 mg/kg, hydrochloride salt
[21] = optimal dosage 135 mg/kg, hydrochloride salt

SMILES	BWD (body weight difference vs control) ([1]; 50 mg/kg/inj, daily for 5 days) [g]	KE (log tumor cell population end vs before treatment) ([1]; 50 mg/kg/inj, daily for 5 days)	Tox.Day Surv. (survivors/animals tested) ([1]; 50 mg/kg/inj, daily for 5 days)	BWD (body weight difference vs control) [1, 5] [g]	KE (log tumor cell population end vs before treatment) [1, 5]	Tox.Day Surv. (survivors/animals tested) [1, 5]	BWD (body weight difference vs control) [1, 6] [g]	KE (log tumor cell population end vs before treatment) [1, 6]	BWD (body weight difference vs control) [1, 7] [g]	KE (log tumor cell population end vs before treatment) [1, 7]	response vs control in vivo at 50 mg/kg [1, 8] [%]	response vs control in vivo at 100 mg/kg [1, 8] [%]	BWD (body weight difference vs control) [1, 9] [g]	KE (log tumor cell population end vs before treatment) [1, 9]	BWD (body weight difference vs control) ([1]; 25 mg/kg/inj, daily for 5 days) [g]	KE (log tumor cell population end vs before treatment) ([1]; 25 mg/kg/inj, daily for 5 days)	response vs control in vivo at 25 mg/kg [1, 11] [%]	response vs control in vivo at 50 mg/kg [1, 12] [%]	response vs control in vivo at 100 mg/kg [1, 13] [%]	response vs control in vivo at 200 mg/kg [1, 14] [%]	further results
CNC(=O)OCc1nc(SC)n(Cc2ccccc2)c1COC(=O)NC [E, 1-benzyl-2-methylthio-4,5-bis-(N-methylcarbonyloxymethyl)imidazole]	0.9	-1.19	6/6	0.4	-1.19	6/6	-0.4	-0.44	-1.2	-0.71	116	116									Tox.Day Surv. (survivors/animals tested) [1, 6]: 6/6; Tox.Day Surv. (survivors/animals tested) [1, 7]: 6/6; response vs control in vivo at 200 mg/kg [1, 8]: 129%; response vs control in vivo at 400 mg/kg [1, 8]: 127%
CSc1nc(COC(=O)NC(C)C)c(COC(=O)NC(C)C)n1Cc1ccccc1 [F, 1-benzyl-2-methylthio-4,5-bis-[N-(2-propyl)carbonyloxymethyl)imidazole]	-0.5	-0.42		-0.3	-0.39		-2.2	-0.32	-3.2	toxic			-0.2	-1.64	-1.5	-1.59	101	110	111	116	response vs control in vivo at 12.5 mg/kg [1, 10]: 98%
CNC(=O)OCc1nc(-c2ccccc2)n(C)c1COC(=O)NC [G, 1-methyl-2-phenyl-4,5-bis-(N-methylcarbonyloxymethyl)imidazole]	-0.8	-1.38	5/5	-1.0	-1.31	5/5	-2.2	-1.28			112	116	-0.2	-1.56	0.0	-1.44					Tox.Day Surv. (survivors/animals tested) [1, 9]: 5/5; Tox.Day Surv. (survivors/animals tested) ([1]; 25 mg/kg/inj, daily for 5 days): 5/5; Tox.Day Surv. (survivors/animals tested) [1, 6]: 5/5; response vs control in vivo at 12.5 mg/kg [1, 8]: 98%; response vs control in vivo at 25 mg/kg [1, 8]: 107%; response vs control in vivo at 200 mg/kg [1, 8]: 119%
CNC(=O)OCc1nc(SC)n(C)c1COC(=O)NC [H, 1-methyl-2-methylthio-4,5-bis-(N-methylcarbonyloxymethyl)imidazole]	-2.6	4.21	6/6	-4.1	6.75	6/6					184	236	-1.2	1.05	-1.4	1.05					LOX % T/C Survl. [2, 15]: 365% and 233%; LOX Cures [2, 15]: 5/6 and 2/6; LOX % T/C Survl. [2, 16]: 234%; LOX Cures [2, 16]: 2/6; MX-1 % T/C wt. ([3]; optimal dosage 100 mg/kg, free base): -73%; MX-1 % T/C wt. [3, 16]: -63%; MX-1 % T/C wt. [3, 17]: -56%; MX-1 Cures [3, 17]: 2/6; BWD (body weight difference vs control) [1, 18]: -0.7 g; KE (log tumor cell population end vs before treatment) [1, 18]: -0.83; Tox.Day Surv. (survivors/animals tested) [1, 18]: 5/6; Tox.Day Surv. (survivors/animals tested) [1, 9]: 6/6; Tox.Day Surv. (survivors/animals tested) ([1]; 25 mg/kg/inj, daily for 5 days): 6/6; response vs control in vivo at 6.25 mg/kg [1, 8]: 125%; response vs control in vivo at 12.5 mg/kg [1, 8]: 147%; response vs control in vivo at 25 mg/kg [1, 8]: 147%
CSc1nc(COC(=O)NC(C)C)c(COC(=O)NC(C)C)n1C [I, 1-methyl-2-methylthio-4,5-bis-[N-(2-propyl)carbonyloxymethyl)imidazole]	0.0	-0.56		-1.2	1.89		-1.8	4.21	-3.4	toxic			2.6	-1.40	0.4	-0.91	125	130	163	184	response vs control in vivo at 12.5 mg/kg [1, 10]: 113%; response vs control in vivo at 400 mg/kg [1, 19]: 70%
COc1nc(COC(=O)NC(C)C)c(COC(=O)NC(C)C)n1C [J, 1-methyl-2-methoxy-4,5-bis-[N-(2-propyl)carbonyloxymethyl)imidazole]	-1.0	0.54		-2.1	1.87		-2.6	3.41	-4.2	3.88					-0.1	-0.60	130	147	166	189	response vs control in vivo at 400 mg/kg [1, 19]: 196%
CCCn1c(SC)nc(COC(=O)NC)c1COC(=O)NC [K, 1-n-propyl-2-methylthio-4,5-bis-(N-methylcarbonyloxymethyl)imidazole]																					LOX % T/C Survl. [2, 20]: 191%; LOX Cures [2, 20]: 1/6; MX-1 Cures [3, 20]: 6/6; hygroscopicity [4]: slightly hygroscopic
CCCCCCn1c(SC)nc(COC(=O)NC)c1COC(=O)NC [L, 1-n-hexyl-2-methylthio-4,5-bis-(N-methylcarbonyloxymethyl)imidazole]																					LOX % T/C Survl. [2, 21]: 208%; LOX Cures [2, 21]: 1/6; MX-1 Cures ([3]; optimal dosage 270 mg/kg, hydrochloride salt): 6/6

— patent publication US5329012A, “Bis(acyloxmethyl)imidazole compounds” (The Research Foundation of State University of New York, priority 1987, dated 1994)
